Measured values as given in patent publication US20020142982A1, “Method for regulating angiogenesis” (priority 1999, published 2002).
Several values for one entry are separate records, joined by “and”; a condition that tells them apart may be missing. Equal entries are not always repeated.

Columns and labels:
[1] = system: MATRIGEL plugs implanted into athymic mice; assay: MATRIGEL implant model of subcutaneous angiogenesis in athymic mice; format: in vivo
Description: To disclose if SPP regulates angiogenesis in vivo, A MATRIGEL implant model of subcutaneous angiogenesis in […] mice was used. In these experiments, female […] mice (4-6 weeks old) were injected subcutaneously with 0.4 mL MATRIGEL (approximate protein concentration 9.9 mg/mL, Collaborative Research) premixed with vehicle (fatty acid-free BSA, 115 μg/mL, Sigma), or FGF-2 (1.3 μg/mL) in the absence or presence of various concentrations of SPP. Seven days later, MATRIGEL plugs were harvested along with underlying skin and the gross angiogenic response was recorded under a Zeiss Stemi SV6 dissecting microscope. For quantification, MATRIGEL plugs were fixed with 4% paraformaldehyde in PBS, dehydrated in ethanol and xylene, embedded in paraffin, and sections subjected to hematoxylin and eosin staining. Angiogenesis was quantified by direct counting of vessels containing red blood cells residing in the stroma interface and the MATRIGEL implant. Each treatment involved 4 mice. 2 random sections from each were quantified and represented as mean±standard deviation. […]
In these experiments, MATRIGEL plugs were fixed, dehydrated, embedded, and sections were subjected to hematoxylin and eosin staining. Angiogenesis was quantified by direct counting of vascular structures as described. Vascular density for each treatment was quantified and represented as mean±standard deviation (n=4). […]

EDG-1 [2] = target: EDG-1 (Homo sapiens, UniProt P21453); conditions: 32P-SPP, HEK293EDG-1 cells; read-out: dissociation constant, Kd, of SPP binding to EDG-1; cited from earlier work
Sequence of EDG-1 (Homo sapiens, UniProt P21453) (P21453 whole entry): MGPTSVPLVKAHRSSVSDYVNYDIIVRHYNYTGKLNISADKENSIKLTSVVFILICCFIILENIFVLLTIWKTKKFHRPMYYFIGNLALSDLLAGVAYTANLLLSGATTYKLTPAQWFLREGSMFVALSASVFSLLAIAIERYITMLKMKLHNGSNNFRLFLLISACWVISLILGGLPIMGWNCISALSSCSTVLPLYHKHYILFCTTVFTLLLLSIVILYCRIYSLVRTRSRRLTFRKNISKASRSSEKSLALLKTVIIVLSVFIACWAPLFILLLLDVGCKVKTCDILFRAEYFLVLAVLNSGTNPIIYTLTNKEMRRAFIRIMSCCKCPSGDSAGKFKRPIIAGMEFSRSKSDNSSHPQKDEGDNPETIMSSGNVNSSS

HUVEC [3] = assay: HUVEC morphogenesis on MATRIGEL (in vitro angiogenesis, tubular length); format: cell-based, human; conditions: 12-18 hours; SPM and C1P 1 μM
Description: FIG. 42 is microscope images showing morphogenesis of HUVEC cells plated on Matrigel. HUVEC cells were transduced with 50 MOI of indicated viruses; a,b=none, c=β-gal, d=wild-type EDG-1, e=T236AEDG-1, f=T236AEDG-1+wild-type Akt. Total viral load in c-f is normalized. In vitro angiogenesis assay on Matrigel was conducted in the presence (b to f) or not (a) of 100 nM S1P. The numbers are mean±s.e.m of total tubular length per microscopic field (n=2). Scale bar=170 μm.
To investigate SPP induction of angiogenesis, 200 μL aliquots of thawed MATRIGEL were polymerized in 24-well tissue culture plates. HUVEC were trypsinized, resuspended in plain M199 medium containing soybean trypsin inhibitor (10 mg/mL, Sigma Chemical Co., St. Louis, Mo.). Following centrifugation (250 g; 5 minutes), cells were resuspended in plain M199 supplemented with 2% CFBS at a density of 1.5×10^5 cells/mL. 200 μL of cell suspension were seeded on these gels in the presence or absence of SPP (Biomol), for 12-18 hours. Cells were rinsed two times with phosphate buffered saline (PBS), and then fixed with 4% formaldehyde. Results were recorded photographically using a Zeiss Axiovert 100TV microscope equipped with a 5× objective. Five random fields of each well were photographed, and total tubular length was quantified by image analysis (Kinsella, J. et al., Experimental Cell Research 199: 56-62 (1992); Gamble J., et al., J. Cell Biol. 121: 931-943 (1993)).
Scale bar represents 52 microns. These quantitative data are the mean±standard deviation of duplicate determinations from a representative experiment which was repeated at least three times. SPP concentrations (in μM) are indicated in parentheses. For SPP +PTx, HUVEC were pretreated with PTx (200 ng/mL) for 2 hours, trypsinized, plated onto MATRIGEL, then stimulated with 500 nM SPP in the presence of PTx (20 ng/mL) for 16-18 hours. For SPP+C3, HUVEC were pretreated with C3 exoenzyme (10 μg/mL) for 48 hours, trypsinized, plated onto MATRIGEL, stimulated with 500 nM SPP together with the same concentration of C3 exotoxin. SPM, sphingomyelin (1 μM). For C1P, C8-ceramide-1-phosphate (1 μM). The maximal effects achieved by 1 μM SPP was indistinguishable from the positive control medium which contained FBS.
In these experiments, HUVEC were plated onto MATRIGEL in the presence of the same amount of corresponding antibodies without or with 500 nM SPP. 16 hours later, total length of HUVEC networks formed on MATRIGEL was quantified.

EDG-1 [4] = assay: EDG-1 phosphorylation in 32P-labeled HEK293EDG-1 cells; format: cell-based; conditions: 100 nM S1P
Description: FIG. 26 is an SDS PAGE showing that S1P treatment induces EDG-1 phosphorylation. HEK293EDG-1 were labeled with [^32P]-orthophosphate, and stimulated with 100 nM S1P for indicated times. Some cultures were treated with 10 μM LY294002.
To label the EDG-1 receptor in HUVEC and HEK293EDG-1 cells, they were pre-incubated in phosphate-free DMEM (GIBCO-BRL) for 2 hr. Subsequently, cells were labeled with [^32P] orthophosphate (80 μCl/ml) for 3 hr. To examine the effect of P1-3 kinase, cultures were treated with wortmannin (100 nM) or LY294002 (10 μM) during tine last hour of labeling. After SPP stimulation, ^32P-labeled EDG-1 receptor was immunoprecipitated with either chicken anti-EDG-1 1gY or anti-M2, resolved on SDS-PAGE, and visualized by autoradiography.

HUVEC [5] = assay: Adherens junction assembly in HUVEC, immunofluorescence of VE-cadherin and catenins; format: cell-based, human; conditions: 500 nM, 1 hour
Description: To investigate whether SPP regulates the formation of adherens junction in endothelial cells, HUVEC were plated at a density of 2×10^4 cells/em^2 for 2 days, starved in lipid-depleted medium and treated without (cont) or with SPP (500 nM for 1 hours). For these experiments, after treatment cells were washed with ice-cold PBS, fixed with 4% formaldehyde at room temperature or methanol at −20° C. for 15 minutes. In the case of formaldehyde fixation, cells were permeabilized with 0.2% TX-100. After washing with PBS, cells were stained with antibodies as follows: VE-cadherin ([…], Transduction Labs, San Diego, Calif.; 1 μg/mL, Santa Cruz Biotechnology, Inc., Santa Cruz, Calif.), α-catenin ([…], Transduction Labs), β-catenin (1.25 μg/mL, Transduction Labs; 0.4 μg/mL, Santa Cruz), γ-catenin ([…], Transduction Labs). The primary antibody staining was visualized with FITC-conjugated goat anti-rabbit or TRITC conjugated sheep anti-mouse (1:1000, Cappel, now owned by ICN, Costa Mesa, Calif.) for 30 minutes at room temperature, and imaged on a Zeiss Axiovert 100TV fluorescence microscope. […]

## CCCCCCCCCCCCC/C=C/[C@@H](O)[C@@H](N)COP(=O)(O)O [SPP, sphingosine-1-phosphate]
[1]; MATRIGEL plug without FGF-2
  angiogenesis with SPP alone: did not induce significant angiogenesis
[1]; SPP + FGF-2 1.3 μg/mL in MATRIGEL plug, seven days
  FGF-2 induced angiogenesis (vascular density): dramatically enhanced
EDG-1 [2]
  Kd: 8.1 nM and 8 nM
HUVEC [3]
  HUVEC morphogenesis on MATRIGEL (tubular length): promoted HUVEC morphogenesis in a dose-dependent manner
EDG-1 [4]
  phosphorylation of EDG-1: induced a time-dependent phosphorylation
HUVEC [5]
  VE-cadherin, α-, β- and γ-catenin localization at cell-cell junctions: dramatically increased
